ChEMBL document CHEMBL2380207, “Recent advances in natural products from plants for treatment of liver diseases” (Eur J Med Chem, 2013)

Experiment: Inhibition of Hepatitis C virus protease
Design: species or system Hepacivirus hominis

IC50: 35 µM
SMILES: CC1Cc2cccc(O)c2C(=O)O1 (stereo unspecified) [MELLEIN]
